# Data as given in PMC8968665, “Verteporfin is a substrate-selective γ-secretase inhibitor that binds the amyloid precursor protein transmembrane domain” (The Journal of Biological Chemistry, 2022).
# “And” between values parts separate entries of the source, which are not always exact repeats. Identical values can stand only once. “Also recorded” adds a separate entry of the source. Like-named read-outs stand apart in the source and are kept apart here.
# Columns and labels:
# [1] = molecular target: T1, C99 domain of the human amyloid precursor protein (Homo sapiens, UniProt P05067); experiment: TROSY NMR titration of C99 by verteporfin, fit to 1:1 binding model
# T1 construct: the transmembrane 99 residue C-terminal (C99) domain; His tag (either the C-terminal hexa-His that is kept, or the N-terminal His of C99-NT2 removed by thrombin); made in house; host or cells: E. coli BL21DE3
# T1 sequence (P05067 672-770 limits assumed): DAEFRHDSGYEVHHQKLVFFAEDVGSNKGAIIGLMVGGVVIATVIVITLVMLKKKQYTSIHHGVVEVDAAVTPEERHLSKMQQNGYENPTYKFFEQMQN
# Protocol: The preparation of NMR screening samples consisted of final concentrations of 50 μM C99, 2.5% w/v LMPG, […] buffer imidazole, 5% v/v D2O, 0.5 mM EDTA, pH 6.5. To ensure that these final conditions were maintained, the individual components of the screening samples were added from stocks in a specific order. For example, to make 10 ml of screening sample in imidazole NMR buffer, the following was added: (1) 10 by 250 μl frozen stocks of 200 μM protein were thawed on ice and transferred to a 15 ml conical vial; (2) 1.25 ml of 20% w/v LMPG stock (dissolved in H2O) was added to the conical vial, which was mixed by vortexing; (3) 1 ml of 10× concentrated imidazole NMR buffer was added to the conical vial and mixed by vortexing; (4) the sample was then diluted to 10 ml by adding 4.75 ml of ddH2O and 0.5 ml of D2O and allowed to reach equilibrium for at least 60 min. This final pool contained 50 μM C99, 25 mM imidazole, 100 mM NaCl, 2.5% LMPG, 5% v/v D2O, 0.5 mM EDTA, pH 6.5. At that point, the samples (199 μl for each well) were distributed into 96-well plates containing predispensed compounds, thoroughly mixed by pipette, and the complete 200 μl mixtures were transferred to 3 mm x 4 inch NMR tubes. At this point, each 3 mm NMR tube contained a 200 μl sample of 50 μM C99, 50 μM Compound, 25 mM imidazole, 100 mM NaCl, 2.5% w/v LMPG, 5% v/v D2O, 0.5% v/v DMSO, 0.5 mM EDTA, pH 6.5. Loaded NMR tubes were cleaned with 100% Ethanol on a kimwipe, securely capped, and transferred to an NMR tube rack compatible with a Bruker SampleJet system.
# (§1) A Bruker Avance III 600 MHz NMR spectrometer equipped with a cryoprobe (CPTCI) and automated sample changer (SampleJet) was used to collect NMR spectra. Sample details are described above. For high-throughput screening data collection, the ^15N-^1H BEST-TROSY (b_trosy3gpph.2) experiment with 64 scans for each of 96 increments and a relaxation delay of 200 ms was run at 318 K for a total data acquisition time of 35 min per sample. To achieve enhanced signal-to-noise ratio, follow-up titrations and control experiments were conducted using the BEST-TROSY pulse program with 200 scans per 96 increments at 318 K, for a total data acquisition time of 110 min per sample. Data were processed using Bruker Topspin 3.6 using a Gaussian window function with a line broadening of -10 and a Gaussian max of 0.1 in both dimensions. NMR data were then further processed and analyzed using NMR-FAM SPARKY, plotted using GraphPad Prism 9, and prepared for publication figures using Affinity Designer.
# (§2) 2D ^15 N-^1H HSQC NMR data used to calculate dissociations constant (KD) values by first normalizing 2D data using the established formula ([78]) (Equation 1):(1) δ(1H,15N)=√(1/2[δ2H+.14∗δ2N]) Where δ(1H,15N) is the square root of linear chemical shifts in each respective dimension, δH and δN with the Nitrogen normalization factor of 0.14.
# After 2D normalization, the data were fit to a hyperbolic binding isotherm using one of the following formulas depending of the data:(2) Y=Bmax∗X/(KD+X)+NS∗X
# For this equation, Y is the total binding, Bmax is the maximum binding in the same units as Y, X is the added ligand in molar units, KD is the equilibrium dissociation constant in the same units as X, and NS is a linear term to account for either vehicle or nonspecific verteporfin effects.(3) Y=Bmax∗X/(KD+X)
# For this equation, Y is the total binding, Bmax is the maximum binding in the same units as Y, X is the added ligand in molar units, KD is the equilibrium dissociation constant in the same units as X. 1D NMR-binding curves were generated by directly inputting 1D chemical shift perturbations directly into the proper version of Equation 2. Peak height data, such as that quantified in Figures 4 and S4, were first generated using the peak-picking function in NMRFAM Sparky, and peak heights as a function of ligand concentration were used to generate a KD by addition into Equation 2.
# [2] = tested on: T2, Notch-1 TM/JM (residues 1721–1771); experiment: TROSY NMR titration of Notch-1 TM/JM by verteporfin; assay type: binding
# T2 construct: flanked by its juxtamembrane segments (residues 1721–1771, “Notch-1 TM/JM”); made in house; host or cells: E. coli BL21DE3 Star, pET21b
# Protocol: as §1, §2
# [3] = molecular target: T3, γ-secretase cleavage of Notch-1 TM/JM (Homo sapiens, UniProt P49768+Q92542+Q96BI3+Q9NZ42); experiment: γ-Secretase assay, Notch-1 TM/JM cleavage, NICD by anti-V1744 Western blot; assay type: biochemical
# T3 construct: made in house; host or cells: Notch-1 TM/JM: E. coli BL21DE3 Star
# T3 sequence (Q92542 34-709, other chains not shown): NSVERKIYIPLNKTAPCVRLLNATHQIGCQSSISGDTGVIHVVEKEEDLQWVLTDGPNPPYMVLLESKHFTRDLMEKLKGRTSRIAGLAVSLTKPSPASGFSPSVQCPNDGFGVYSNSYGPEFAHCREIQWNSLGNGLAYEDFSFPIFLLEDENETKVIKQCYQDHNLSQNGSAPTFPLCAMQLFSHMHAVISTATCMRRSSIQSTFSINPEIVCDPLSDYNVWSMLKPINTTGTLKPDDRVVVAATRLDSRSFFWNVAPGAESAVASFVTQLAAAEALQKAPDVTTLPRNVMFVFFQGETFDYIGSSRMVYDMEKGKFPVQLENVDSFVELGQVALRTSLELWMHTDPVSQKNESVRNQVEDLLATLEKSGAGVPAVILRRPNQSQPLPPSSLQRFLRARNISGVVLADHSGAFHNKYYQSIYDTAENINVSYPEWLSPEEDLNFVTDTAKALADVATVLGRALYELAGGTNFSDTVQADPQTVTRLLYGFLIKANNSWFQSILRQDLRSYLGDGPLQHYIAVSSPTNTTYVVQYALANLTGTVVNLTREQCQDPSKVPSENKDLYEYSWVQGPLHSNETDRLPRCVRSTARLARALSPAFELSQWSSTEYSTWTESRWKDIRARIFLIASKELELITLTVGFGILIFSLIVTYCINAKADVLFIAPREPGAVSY
# T3 sequence (Q96BI3 whole entry, other chains not shown): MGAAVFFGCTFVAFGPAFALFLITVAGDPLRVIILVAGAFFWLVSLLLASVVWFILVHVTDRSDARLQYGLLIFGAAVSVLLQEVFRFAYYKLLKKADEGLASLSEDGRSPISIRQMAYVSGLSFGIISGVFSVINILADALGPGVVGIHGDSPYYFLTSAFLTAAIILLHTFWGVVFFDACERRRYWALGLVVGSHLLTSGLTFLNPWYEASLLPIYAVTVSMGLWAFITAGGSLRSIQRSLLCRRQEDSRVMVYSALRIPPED
# T3 sequence (Q9NZ42 whole entry, other chains not shown): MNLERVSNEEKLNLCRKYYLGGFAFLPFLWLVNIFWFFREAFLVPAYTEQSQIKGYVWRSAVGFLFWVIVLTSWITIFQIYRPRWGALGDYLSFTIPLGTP
# Protocol: The γ-secretase-dependent proteolysis assays with both substrates (C100-FLAG and HexaHis Notch 1 JM/TM) were performed in a weak zwitterionic detergent (CHAPSO, 3-[(3- cholamidopropyl)dimethylammonio]-2-hydroxy-1-propanesulfonate) solubilized conditions ([79], [80]). C100 is C99 with an added N-terminal Met residue. Stock solution of purified γ-secretase ([81], [82]) was diluted to 30 nM in standard assay buffer containing 50 mM HEPES (pH 7.0), 150 mM NaCl, 0.1% DOPC (phosphatidylcholine), 0.025% DOPE (phosphatidylethanolamine), and 0.25% CHAPSO) and incubated at 37 °C for 30 min, whereupon stock solution of verteporfin or inhibitor (LY411,575) was added to achieve the desired concentration with 1% final DMSO concentration. Proteolytic reactions were initiated by adding purified substrates (either C100-FLAG(79) or HexaHis-Notch 1 JM/TM(77)) and incubating at 37 °C (16 h for C100Flag and 4 h for HexaHis-Notch 1 JM/TM). Reactions were quenched with SDS, and the cleaved intracellular domain products (AICD-FLAG released from C100-FLAG or truncated intracellular domain (NICD) released from the proteolysis of Hexa-His Notch 1 JM/TM) were visualized by Western blot using specific primary antibodies, anti-FLAG antibody for FLAG-tagged AICD, and neoepitope-specific anti-V1744 antibody for NICD ([80], [83], [84]).
substance,measurement,setting,value
verteporfin,Kd,"[1]; C99 in model membranes, read-out: KD of 1:1 complex",~17 µM
same,Kd,"[1]; D6PC/DMPC (q = 0.33) bicelles, n = 1, error of the fit, Fig. 3C, read-out: KD from C99 peak E766",17 ± 4 µM
same,Kd,"[1]; D6PC/DMPC (q = 0.33) bicelles, n = 1, error of the fit, Fig. 3C, read-out: KD from C99 peak T761",16 ± 4 µM
same,Kd,"[1]; LMPG micelles, 50 μM C99, pH 6.5, 318 K, 1:1 binding model, read-out: average dissociation constant (KD) across multiple residues in and around the TM domain",17 ± 11 µM
same,Kd,"[1]; depending on the membrane mimetic used (LMPG, DDMB micelles, DHPC-DMPC bicelles), read-out: KD range across membrane mimetics",15 to 47 µM and 10 to 50 µM
same,Kd,"[1]; nonionic DDMB micelles, n=1, error of the fit, Fig. S2C, read-out: KD from fitting of two different peaks",43 µM and 47 µM
same,Kd,"[1]; untagged C99 in DDMB micelles, Fig. S2 title, read-out: KD",45 ± 22 µM
same,binding to Notch-1 TM/JM,[2]; D6PC/DMPC bicelles,only minor spectral changes at very high concentrations; also recorded: does not bind
same,binding to Notch-1 TM/JM,[2]; DDMB micelles,little change in the spectrum of Notch-1 until a concentration of 300 μM; also recorded: does not bind
same,binding to Notch-1 TM/JM,"[2]; LMPG micelles, same conditions as C99 titration",does not bind; also recorded: only minor perturbations of Notch resonances
same,binding to Notch-1 transmembrane domain,[2]; general statement,did not bind; also recorded: not to bind
same,reduction of Notch-1 cleavage at saturating verteporfin,[3]; 30 nM γ-secretase,approximately 75%
same,IC50,"[3]; 30 nM γ-secretase, Notch-1 TM/JM, 4 h, 37 °C, n = 3, estimated, at concentrations above 200 μM, read-out: IC50, inhibition of NICD production",240 ± 66 µM
same,inhibition of Notch-1 cleavage,[3]; verteporfin at 164 μM (IC50 for C99 cleavage),no inhibition
same,effect on Notch-1 cleavage at low concentrations,"[3]; verteporfin below ca. 200 μM, relative to 0 verteporfin",first activated; also recorded: enhanced; also recorded: stimulate
